Measured values as given in publication PMC10442743 (Dalton Transactions (Cambridge, England : 2003), 2023).
Read-outs that look alike come from different tables or passages of the source.

Experiments:
[1] = test system: 14-mer ssDNA (DNA, single strand) ATACATGGTACATA; assay: ESI tandem mass spectrometry; conditions: MilliQ water pH 7, 37 °C, 24 h; compound:DNA 3:1 mixed; adduct seen as [Ru(toluene)(PPh3)]2+; non-covalent
[2] = test system: 6-mer dsDNA (DNA, duplex) AGGCAG/CTGCCT; assay: ESI tandem mass spectrometry; conditions: MilliQ water pH 7, 37 °C, 3:1 mixed; 24 h or 72 h (ESI); non-covalent
L929 = assay: MTT cytotoxicity assay, L929 fibroblasts (and selectivity index); assay type: cell-based, mouse; conditions: for SI (selectivity index): IC50 L929 divided by average IC50 of the breast cancer cell lines; for IC50: MTT
Method: (§1) The cytotoxicity of 1–11CA was assessed against human breast cancer MCF-7 and MDA-MB-231 cells, and non-tumorigenic adherent mouse fibroblast connective tissue L929 cells using the MTT assay after 24 and 72 h (Tables S5 ^† and Table 1, respectively).
(§2) Then, necessary dilutions were made using the supplement DMEM, to prepare the range of tested concentrations. Since DMSO was used to solubilize the compounds, a supplemented DMEM + DMSO (at the same percentage as in the sequential dilutions) was considered as a control in the 3-[4,5-dimetylthiazole-2-yl]-2,5-diphenyltetrazolium bromide (MTT) assay.
(§3) L929, MCF-7, and MDA-MB-231 cell lines were cultured in DMEM supplemented with 10% (v/v) FBS and 1% (v/v) of penicillin–streptomycin. The cells were incubated in a humidified chamber at 37 °C under saturated air with a 5% CO2 atmosphere. Cells were passed at 80%–90% of confluency with 0.25% (w/v) trypsin and the cell culture media was changed every 2–3 days.
(§4) The compounds were tested on two breast cancer cell lines (MCF-7 and MDA-MB-231) and L929 fibroblasts, used as a reference for the safety evaluation according to ISO 10993-1:2009 “Biological evaluation of medical devices”. Cells were seeded on sterile 96-well plates at 50 000 cells per well (L929) and 20 000 cells per well (MCF-7 and MDA-MB-231) in supplemented DMEM medium (100 μL) for 24 h. The culture medium was removed and new media containing different concentrations of the compounds (0–1000 μM) was added to the wells (100 μL). Control cells were incubated under the same conditions in the absence of a compound. Cells were incubated for 24 and 72 h under the same conditions described above. Then, the medium was removed, and the cells were incubated with 3-(4,5-dimethylthiazol-2-yl)-2,5-diphenyltetrazolium bromide (MTT; 0.5 mg mL^−1) for 3 h. After this time, the medium was removed, and formazan crystals were solubilized with DMSO (100 μL per well). The absorbance in each well was read on a SynergyTM HT Multimode microplate reader (BioTek Instruments; Winooski, VT, USA) at 570 and 630 nm (for background correction), and the cell viability was calculated according to the following equation (eqn (1)):1 [drawing 3] where OD570(sample) and OD630(sample) are the optical densities of the solutions containing the compounds and OD570(control) and OD630(control) are controls without compound.
(§5) Each apoptosis value determination represents the mean ± standard deviation of 2 independent assays. The IC50 values were obtained using GraphPad Prism software and ANOVA (analysis of variance) was performed to determine the statistical difference between the IC50 values of different cell lines.

MCF-7 [3] = assay: MTT cytotoxicity assay, MCF-7 cells; assay type: cell-based, human; conditions: MTT
Method: as §1, §2, §3, §4, §5

[4] = n-octanol/water; ESI ref 13; cited from earlier work
MDA-MB-231 [5] = assay: MTT cytotoxicity assay, MDA-MB-231 cells; assay type: cell-based, human; conditions: MTT
Method: as §1, §2, §3, §4, §5

MDA-MB-231 [6] = assay: FITC Annexin V / 7-AAD apoptosis assay, MDA-MB-231; assay type: cell-based, human; conditions: 24 h at 24 h IC50 dose
Method: Apoptosis in MCF-7 and MDA-MB-231 cells was determined using FITC Annexin V with a 7-aminoactinomycin D (7-AAD) staining kit (BioLegend®, California, US) according to the manufacturer's instructions. […] Following incubation, the cells were washed with PBS twice and detached using 0.25% trypsin. After obtaining cell pellets by centrifugation (300g for 5 min), the cells were resuspended in 100 μL of PBS, followed by the addition of 10 μL of FITC Annexin V and 7-AAD, and then incubated for 15 min at room temperature while protected from light. After the incubation period, 200 μL of binding buffer was added to the cell suspension and the samples were analyzed immediately using a BD Accuri C6 flow cytometer with a minimum of 10 000 events. The assays were performed in quadruplicate and the results were analyzed with Accuri C6 analysis software.
as §5, with “Each cell viability result represents the mean ± standard deviation (SD) for n = 4 replicates in each of 3 independent assays, resulting in 12 independent values. Each” for “Each”

[7] = Solubility in water (ICP-MS); conditions: 25 °C, limit of detection = 5 ppt
Method: sonication, the mixtures were stirred at 25 °C for 1 h. The saturated solutions were filtered
to remove any insoluble solids, dissolved in 0.5 mL of MilliQ water, and analyzed using
ICP-MS. Samples were submitted to acidic digestion with 2 mL of concentrated HNO3
min to heat to 100°C and keep at 100°C for 60 min. After the digestion, the sample
volumes were precisely adjusted to 5 mL with MilliQ water. Samples were further diluted
30 times with 2% HNO3 solution and their Ru content was analyzed by ICP-MS using
standard mode on NexIon 350 D ICP-MS instrument (PerkinElmer). Yttrium was added
as an internal standard at a concentration of 2 ppb to all the solution and Ru quantitation
was performed using an external calibration curve with standards in the 0.05-50 ppb

[8] = Molar conductivity in acetonitrile; assay type: physicochemical; conditions: 1 mM in acetonitrile, 25 °C
Method: The molar conductivity (ΛM, reported as S·cm2·mol–1) of solutions of 11CA in acetonitrile (1 mM) were measured in a Radiometer Copenhagen CDM92 equipped with a conductivity cell CDC641T glass platinum electrode at room temperature (25 °C). The conductivity of the pure solvent was used as standard controls.
Table S3. Solubility in water at 25 °C, n-octanol/water partition coefficient and molar conductivity of the 11CA. * below limit of detection = 5 ppt.

[9] = Stability in solution (ESI-MS, NMR); conditions: 100% d6-DMSO, 1 mM, 72 h
Method: The stability of 11CA under pseudo-physiological conditions was assessed using ESI-MS and ^1H and ^31P NMR spectroscopy.
Stability studies were performed on 11CA over 72 h at 37 °C.
The stability of 11Cl was also monitored over
72 h via 1H and 31P NMR spectroscopy. The complex was fully dissolved in d6-DMSO,
diluted with D2O to reach 10% d6-DMSO in D2O (1 mM final concentration) and, finally,
the pD was adjusted to 7.2 ± 0.1 (neutral conditions). Furthermore, the stability of 11Cl
and 11BPh4 was also assessed in 100% d6-DMSO (1 mM final concentration) as a highly

[10] = n-octanol/water partition coefficient (shake-flask, ICP-MS)
Method: The saturated solutions were filtered
(DigiPREP Jr. 15ml, 40 Pos, SCP Science). The digestion program was the following: 15
After the digestion, the sample
Samples were further diluted
range. All measurements were performed in triplicates.
lipophilicity of a compound. This assay was performed following the Shake-flask method
organic and aqueous phase. Aliquots of each phase were taken and analyzed separately
range. The partition coefficient was calculated as P!"=
respectively. All measurements were performed in triplicates.

ct-DNA = conditions: cited from earlier work
ctDNA = assay: Circular dichroism / induced circular dichroism with calf thymus DNA; conditions: DNA
Method: Calf thymus (ct) DNA (Merck®) was used to perform the circular dichroism assay to detect conformational changes in the ctDNA induced by the compounds. CD spectral data was collected on a Chirascan™ V100 (Applied Photophysics) spectropolarimeter equipped with a large area Avalanche photodiodes detector and computer-controlled thermoelectrical cell holder using a 1 cm path length quartz cuvette. CD spectra of ctDNA in the absence and presence of different concentrations of 11Cl were recorded at wavelengths ranging from 320 to 190 nm under constant nitrogen flush at 25 °C. For each CD spectrum, the number of scans was set to 5, and spectral data were collected at 0.1 ms intervals. Additionally, methyl green (MG) and 4′,6-diamidino-2-phenylindole (DAPI), and propidium iodide (PI) were analyzed as minor and major groove binders and as an intercalator, respectively, to help identify the binding mode of 11Cl to DNA. Samples were prepared in 10 mM Tris-HCl buffer (pH 7.6) with 1 mM EDTA. The concentration of ctDNA was fixed at 100 μM (concerning base pairs) and the ctDNA to 11Cl ratio was varied between 0 and 1. The samples were incubated for 24 h at 37 °C and then analyzed in the CD spectropolarimeter.

MDA-MB-231 [11] = conditions: read-out: cytotoxicity (IC50) MDA-MB-231, cited from earlier work
MCF-7 [12] = conditions: read-out: cytotoxicity (IC50) MCF-7, cited from earlier work
[13] = 24 h exposure, read-out: IC50 (µM) (average ± standard deviation) 24 h L929
[14] = 72 h exposure, read-out: IC50 (μM) (average ± standard deviation) 72 h L929
[15] = 24 h exposure, read-out: IC50 (µM) (average ± standard deviation) 24 h MCF-7
[16] = 72 h exposure, read-out: IC50 (μM) (average ± standard deviation) 72 h MCF-7
[17] = 24 h exposure, read-out: IC50 (µM) (average ± standard deviation) 24 h MDA-MB-231
[18] = 72 h exposure, read-out: IC50 (μM) (average ± standard deviation) 72 h MDA-MB-231

| SMILES | SI (selectivity index) (L929; 24 h) | IC50 (L929; [13]) | SI (selectivity index) (L929; 72 h) | IC50 (L929; [14]) | IC50 (MCF-7 [3]; [15]) | IC50 (MCF-7 [3]; [16]) | IC50 (MDA-MB-231 [5]; [17]) | IC50 (MDA-MB-231 [5]; [18]) | average apoptosis percentage, MDA-MB-231 cells (MDA-MB-231 [6]) | Solubility (μM) [7] | Solubility (μg/mL) [7] | also measured |
| --- | --- | --- | --- | --- | --- | --- | --- | --- | --- | --- | --- | --- |
| Cc1ccccc1.[Cl-].[Ru+2].c1ccc(P(c2ccccc2)c2ccccc2)cc1.c1ccc(P(c2ccccc2)c2ccccc2)cc1 |  |  |  |  |  |  |  |  |  |  |  | binding [1]: yes; binding [2]: yes |
| Cc1ccccc1.[Cl][Ru]([Cl])[PH]12CN3CN(CN(C3)C1)C2 [Compound 4] | 1.7 | 723 ± 29 µM | 1.0 | 79 ± 4 µM | 474 ± 19 µM | 68 ± 7 µM | 384 ± 16 µM | 83 ± 4 µM |  |  |  | LogPow [4]: −1.5 |
| Cc1ccc(C(C)C)cc1.[Cl][Ru]([Cl])[PH]12CN3CN(CN(C3)C1)C2 [Compound 5] | 1.2 | 612 ± 30 µM | 1.3 | 84 ± 4 µM | 526 ± 19 µM | 57 ± 5 µM | 497 ± 12 µM | 71 ± 4 µM |  |  |  | LogPow [4]: > −1.8 |
| Cc1cccc[c]1[Ru+]([Cl])([PH]12CN3CN(CN(C3)C1)C2)[PH](c1ccccc1)(c1ccccc1)c1ccccc1.F[P-](F)(F)(F)(F)F (stereo not shown) [Compound 10] | 0.6 | 74 ± 5 µM | 10.5 | 31 ± 3 µM | 128 ± 30 µM | 3.1 ± 0.2 µM | 113 ± 14 µM | 2.8 ± 0.2 µM | 41% | 547 ± 117 µM | 475 ± 102 µg/mL |  |
| Cc1cccc[c]1[Ru+]([Cl])([PH](c1ccccc1)(c1ccccc1)c1ccccc1)[PH](c1ccccc1)(c1ccccc1)c1ccccc1.c1ccc([B-](c2ccccc2)(c2ccccc2)c2ccccc2)cc1 [Compound 11BPh4] | 0.8 | 59 ± 5 µM | 3.5 | 3.9 ± 0.3 µM | 51 ± 5 µM | 0.52 ± 0.06 µM | 100 ± 8 µM | 1.7 ± 0.3 µM | 33% | below LOD | below LOD | Conductivity (molar conductivity) [8]: 71 S·cm2/mol; stability in DMSO (NMR) [9]: No changes were observed; LogPow [10]: > 3.5 |
| Cc1cccc[c]1[Ru+]([Cl])([PH](c1ccccc1)(c1ccccc1)c1ccccc1)[PH](c1ccccc1)(c1ccccc1)c1ccccc1.O=S(=O)([O-])C(F)(F)F [Compound 11OTf] | 1.5 | 5.8 ± 0.7 µM | 1.8 | 1.8 ± 0.2 µM | 4 ± 1 µM | 0.6 ± 0.07 µM | 4 ± 2 µM | 1.4 ± 0.1 µM | 40% | 1.1 ± 0.1 µM | 1.0 ± 0.1 µg/mL | Conductivity (molar conductivity) [8]: 173 S·cm2/mol; LogPow [10]: 1.75 ± 0.18 |
| Cc1cccc[c]1[Ru+]([Cl])([PH](c1ccccc1)(c1ccccc1)c1ccccc1)[PH](c1ccccc1)(c1ccccc1)c1ccccc1.[F][Sb-]([F])([F])([F])([F])[F] [Compound 11SbF6] | 0.4 | 7 ± 0.4 µM | 12.8 | 1.35 ± 0.09 µM | 11 ± 2 µM | 0.08 ± 0.01 µM | 21 ± 2 µM | 0.131 ± 0.009 µM | 95% | below LOD | below LOD | Conductivity (molar conductivity) [8]: 186 S·cm2/mol; LogPow [10]: 2.01 ± 0.07 |
| N=C(N)c1ccc(-c2cc3ccc(C(=N)N)cc3[nH]2)cc1 [DAPI] |  |  |  |  |  |  |  |  |  |  |  | Kprobe, binding constant of the probe to DNA (ct-DNA; used in eqn (4) ref 92): 5e+06 M⁻¹; CD band 268 nm, intensity change (ctDNA; 268 nm part of the 268−280 nm band): Hyperchromic; CD band 280 nm, intensity change (ctDNA; 280 nm part of the 268−280 nm band): Hypochromic; CD band 210 nm, intensity change (ctDNA; 24 h, 37 °C): Hypochromic; CD band 210 nm, wavelength shift (ctDNA; 24 h, 37 °C): Red; CD band 220 nm (hydrogen bonding), intensity change (ctDNA; 24 h, 37 °C): Hyperchromic; CD band 220 nm (hydrogen bonding), wavelength shift (ctDNA; 24 h, 37 °C): Blue shift; CD band 246 nm (helicity), intensity change (ctDNA; 24 h, 37 °C): Unchanged; CD band 246 nm (helicity), wavelength shift (ctDNA; 24 h, 37 °C): Unchanged; CD band 268−280 nm (base-pair stacking interactions), wavelength shift (ctDNA; 24 h, 37 °C): Unchanged |
| CN(C)c1ccc(C(=C2C=CC(=[N+](C)C)C=C2)c2ccc([N+](C)(C)C)cc2)cc1.[Cl-].[Cl-] [MG, methyl green] |  |  |  |  |  |  |  |  |  |  |  | Kprobe, binding constant of the probe to DNA (ct-DNA; used in eqn (4) ref 91): 900000 M⁻¹; CD band 210 nm, intensity change (ctDNA; 24 h, 37 °C): Hypochromic; CD band 210 nm, wavelength shift (ctDNA; 24 h, 37 °C): Blue; CD band 220 nm (hydrogen bonding), intensity change (ctDNA; 24 h, 37 °C): Hyperchromic; CD band 220 nm (hydrogen bonding), wavelength shift (ctDNA; 24 h, 37 °C): Blue shift; CD band 246 nm (helicity), intensity change (ctDNA; 24 h, 37 °C): Hypochromic; CD band 246 nm (helicity), wavelength shift (ctDNA; 24 h, 37 °C): Unchanged; CD band 268−280 nm (base-pair stacking interactions), intensity change (ctDNA; 24 h, 37 °C): Unchanged; CD band 268−280 nm (base-pair stacking interactions), wavelength shift (ctDNA; 24 h, 37 °C): Unchanged |
| N.N.O=C([O-])C1(C(=O)[O-])CCC1.[Pt+2] [carboplatin] |  |  |  |  |  |  |  |  |  |  |  | IC50 (MDA-MB-231 [11]; literature value ref 44): 15.4 ± 3.3 µM; IC50 (MCF-7 [12]; literature value ref 43): 27.3 µM |
| N.N.[Cl][Pt][Cl] [cisplatin] |  |  |  |  |  |  |  |  |  |  |  | IC50 (MDA-MB-231 [11]; literature value ref 42): 38.7 ± 0.03 µM; IC50 (MCF-7 [12]; literature value ref 41): 28 ± 6 µM |
